Test results: patent US20110293746A1, “Modulation of Gsk-3Beta and Method of Treating Proliferative Disorders” (Agency For Science, Technology and Research, priority 2004, published 2011)
“Also recorded” adds a separate entry of the source.

Assays:
p53-inducible DLD1 cells = experiment: Apoptosis and immunoblot in tetracycline-inducible p53 expressing cells; type: cell-based, Human
Experimental: (§1) Cell culture and drug treatments: Human colon cancer cell line HCT116 and its derived isogenic p53^−/−, Puma^−/−, Bax^−/− and p53-inducible DLD cell lines were kindly provided by Dr. Bert Vogelstein (Johns Hopkins University, MD). RKO and RKO/E6 cells were from ATCC. Cells were cultured in DMEM containing 10% FBS. All culture reagents and media were from Invitrogen. 5-Fluorouracil, Adriamycin, etoposide and lithium chloride were purchased from Sigma. GSK-3β specific small molecule inhibitor LY2119301 was a gift from Eli Lilly (Indianapolis) and SB-216763, SB-415283 were obtained from BIOMOL.
(§2) Western blotting, immunoprecipitation and microarray analysis: Cells were scraped, collected and lysed as described previously (Yu, Q., et al. Cancer Res, 62: 5743-5748, 2002). Briefly, cells were lysed with cell lysis buffer (0.3% NP40, 1 mM EDTA, 50 mM Tris-HCl (pH 7.4), 2 mM EGTA, 1% Triton X-100, […], 25 mM NaF, 1 mM Na3VO4, 2 mM AEBSF, 5 μg/ml aprotinin, 1 μg/ml leupeptin) for 30 minutes on ice, and the lysates were clarified by centrifugation at 12,000×g for 15 minutes at 4° C. Protein concentration was quantified (Bio-Rad, Hercules, Calif.) and protein samples (50 μg) were separated by SDS/PAGE and transferred onto Immobilon™ membranes (Millipore, Bedford, Mass.). Antibodies against the following proteins were used: p53 (DO-1), p21, PARP, GSK-α/β, α-Tubulin, and β-actin (Santa Cruz Biotechnology), Puma (Ab-1, Oncogene), Bax (Sigma), phosphor-(Ser9/21)-GSK-3α/β and Caspase-9 (Cell Signaling Technologies), phosphor-(Tyr216/279)-GSK-3α/β (Upstate Biotechnologies), cytochrome c (BD PharMingen). To detect Bax conformational change, cells were lysed in 1% Chaps buffer and the soluble fraction was immunoprecipitated with anti-Bax monoclonal antibody (6A7, BD, PharMingen), followed by immunoblotting with anti-Bax polyclonal antibody. Microarray analysis was performed as described (Kho, P. S., et al. J Biol Chem, 279: 21183-21192, 2004).
(§3) FACS analysis of DNA content and caspase-3 activity: Cells were harvested and fixed in 70% ethanol. Fixed cells were stained with propidium iodide (50 μg/ml) after treatment with RNase (100 μg/ml). The stained cells were analyzed for DNA content by fluorescence-activated cell sorting (FACS) in a FACScalibur™ (Becton Dickinson Instrument, San Jose, Calif.). Cell cycle fractions were quantified using the CellQues™ software (Becton Dickinson). To measure caspase-3 activity, cells were fixed with Cytofix/Cytoperm™ solution (BD PharMingen) as instructed, and then stained with FITC-conjugated rabbit anti-active caspase-3 monoclonal antibody (BD PharMingen). Quantification of cells positive for the caspase-3 detection was performed by flow cytometry.

LoVo cells = experiment: Apoptosis upon DNA damage; type: cell-based, Human; details: p53 wild-type, no Bax protein; data not shown
GSK-3α = molecular target: T1, GSK-3α (Homo sapiens, UniProt P49840); experiment: Immunoblot analysis of GSK-3 phosphorylation status in HCT116 cells; type: cell-based
T1 construct: endogenous in cells; host or cells: HCT116
Experimental: (§4) Protein concentration was quantified (Bio-Rad, Hercules, Calif.) and protein samples (50 μg) were separated by SDS/PAGE and transferred onto Immobilon™ membranes (Millipore, Bedford, Mass.). […] To detect Bax conformational change, cells were lysed in 1% Chaps buffer and the soluble fraction was immunoprecipitated with anti-Bax monoclonal antibody (6A7, BD, PharMingen), followed by immunoblotting with anti-Bax polyclonal antibody.
(§5) Subcellular fractionation: Cells were lysed in mitochondria lysis buffer (210 mM Mannitol, 70 mM Sucrose, 10 mM Hepes (pH, 7.4), 1 mM EDTA, protease inhibitor cocktail) with a Dounce homogenizer and subjected to centrifugation at 1000×g to pellet the nuclei. Post-nuclear supernatant was centrifuged at 10,000×g to pellet the mitochondria-enriched heavy membrane fraction, and the resulting supernatant was further centrifuged to obtain cytosolic fraction. Total proteins (30 μg) from cytosolic or mitochondrial fractions were subjected to immunoblot analysis.

GSK-3β = molecular target: T2, GSK-3β (Homo sapiens, UniProt P49841); experiment: as above; type: cell-based
T2 construct: endogenous in cells; host or cells: HCT116
Experimental: as §4, §5

[1] = tested on: p53 and p53 targets in HCT116 cells; experiment: Immunoblot analyses of p53 and p53 targets; type: cell-based, Human
Experimental: as §2

HCT116 cells = experiment: Western blots of cytosolic fractions: cytochrome c release and caspase-9 processing; type: cell-based, Human; details: after DNA damage (ADR or etoposide) in presence of LY2119301
Experimental: as §2, with “2004). […]” for “2004).”

RKO cells = experiment: FACS apoptosis (sub-G1); type: cell-based, Human; details: p53 wild-type, with ADR
Experimental: as §1, §3

RKO/E6 cells = experiment: FACS apoptosis (sub-G1); type: cell-based, Human; details: p53-inactive, with ADR
Experimental: as §1, §3

HCT116 Bax −/− cells = experiment: FACS apoptosis and immunoblot; type: cell-based, Human
Experimental: as §1, §2, §3

HCT116 Puma −/− cells = experiment: FACS apoptosis and immunoblot; type: cell-based, Human
Experimental: as §1, §2, §3

[2] = tested on: HCT116 cells infected with Ad-p53; experiment: Apoptosis and immunoblot in cells infected with adenovirus expressing p53; type: cell-based, Human
Experimental: as §2, §3
Adenoviral infections: Adenovirus Ad-LacZ and Ad-p53 were obtained from Dr. Shibin Zhou (Johns Hopkins University, Md.). Cells were grown to 50% confluence and infected with recombinant adenovirus as described (Yu, J., et al. Proc Natl Acad Sci USA, 96: 14517-14522, 1999). Twenty-four hours after the infection, cells were treated with drugs for the indicated times.

Bax = Bax conformational activation (IP with 6A7 antibody, Western blot) in HCT116 p53 −/− cells; type: cell-based, Human; details: same conditions
Experimental: as §2

[3] = nuclear and cytoplasmic fractions
[4] = with ADR, etoposide or 5-FU, HCT116 (LY2119301 also RKO)
[5] = LY2119301 with ADR or etoposide
[6] = co-treated with LY2119301 and ADR or etoposide, 24 h

T1 sequence (P49840 whole entry): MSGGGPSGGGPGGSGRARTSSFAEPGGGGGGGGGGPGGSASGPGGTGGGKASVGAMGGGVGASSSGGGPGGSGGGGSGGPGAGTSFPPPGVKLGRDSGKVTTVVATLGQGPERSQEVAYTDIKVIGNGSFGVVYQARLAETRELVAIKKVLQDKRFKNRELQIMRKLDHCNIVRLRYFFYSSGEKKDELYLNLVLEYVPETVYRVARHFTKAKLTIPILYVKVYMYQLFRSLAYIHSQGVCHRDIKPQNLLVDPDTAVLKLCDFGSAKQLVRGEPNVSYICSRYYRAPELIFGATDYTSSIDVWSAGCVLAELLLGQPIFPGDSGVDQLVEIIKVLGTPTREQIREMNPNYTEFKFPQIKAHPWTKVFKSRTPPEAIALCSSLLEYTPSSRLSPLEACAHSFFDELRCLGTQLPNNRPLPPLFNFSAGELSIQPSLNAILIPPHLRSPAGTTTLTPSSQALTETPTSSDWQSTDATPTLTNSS
T2 sequence (P49841 whole entry): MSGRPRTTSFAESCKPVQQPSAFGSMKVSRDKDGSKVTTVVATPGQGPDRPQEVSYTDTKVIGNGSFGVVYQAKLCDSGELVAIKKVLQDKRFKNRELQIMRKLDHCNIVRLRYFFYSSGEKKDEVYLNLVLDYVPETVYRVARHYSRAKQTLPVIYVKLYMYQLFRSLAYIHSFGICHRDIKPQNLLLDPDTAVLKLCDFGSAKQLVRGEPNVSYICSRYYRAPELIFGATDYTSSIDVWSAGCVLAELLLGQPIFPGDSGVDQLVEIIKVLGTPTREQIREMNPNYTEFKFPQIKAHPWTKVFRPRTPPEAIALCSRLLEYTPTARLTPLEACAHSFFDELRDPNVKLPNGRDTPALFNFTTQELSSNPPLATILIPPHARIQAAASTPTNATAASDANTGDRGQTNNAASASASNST

## CN1CCN(c2ccc(NCCNc3ccc([N+](=O)[O-])c(N)n3)nc2-c2ccc(Cl)cc2Cl)C(=O)C1 [LY2119301]
p53-inducible DLD1 cells; IP-Western, p53 induction plus LY2119301
  Bax activation: similarly seen
p53-inducible DLD1 cells; Western blot
  ectopically expressed p53 protein levels: no effect
  p53 dependent transcription of p21: no effect
p53-inducible DLD1 cells; in the presence of LY2119301
  apoptosis induced by enforced p53 expression: significantly increased
LoVo cells
  apoptosis induced by LY2119301 upon DNA damage: resistant
GSK-3α; HCT116 whole lysate immunoblot
  activating tyrosine phosphorylation on GSK-3α: almost completely blocked
  inhibitory serine 21 phosphorylation on GSK-3α: much lesser extent
GSK-3α; [3]
  tyrosine phosphorylation of GSK-3α: blocked
GSK-3β; HCT116 whole lysate immunoblot
  activating tyrosine phosphorylation on GSK-3β: almost completely blocked
  inhibitory serine 9 phosphorylation on GSK-3β: increase
GSK-3β; [3]
  tyrosine phosphorylation of GSK-3β: blocked
GSK-3β; nuclear and cytoplasmic fractions, with or without DNA damage
  serine phosphorylation on GSK-3β in cytoplasm and nucleus: triggered
[1]; HCT116 and RKO
  Bax levels: no effect
[1]; cells treated with genotoxic agents
  cleavage of PARP: remarkably increased
[1]; [4]
  p53-mediated p21 induction: prevents; also recorded: impaired
  p53 accumulation / stability in response to DNA damage: prevents; also recorded: markedly and consistently impaired
[1]; with chemotherapeutic agents, HCT116 and RKO
  induction of Puma: impaired
HCT116 cells
  caspase 9 processing: evident
  cytochrome c release: increased
RKO cells
  apoptotic effect on the p53 response: observed
RKO/E6 cells
  apoptotic effect on the p53 response: not
HCT116 Bax −/− cells; [5]
  PARP cleavage: not observed
HCT116 Bax −/− cells; [6]
  apoptosis: completely refractory
HCT116 Bax −/− cells; immunoblot
  induction of p21 after ADR or etoposide: similarly reduced
  p53 accumulation after ADR or etoposide: similarly reduced
HCT116 Puma −/− cells; [5]
  PARP cleavage: evident
HCT116 Puma −/− cells; [6]
  apoptosis: marked apoptosis
HCT116 Puma −/− cells; immunoblot
  induction of p21 after ADR or etoposide: similarly reduced
  p53 accumulation after ADR or etoposide: similarly reduced
[2]; IP-Western, p53 over-expression plus LY2119301
  Bax activation: similarly seen
[2]; LY2119301 24 h
  apoptosis induced by enforced p53 expression: significantly increased
[2]; immunoblot
  ectopically expressed p53 protein levels: no effect
  p53 dependent transcription of p21: no effect
Bax
  Bax conformation: no detectable change
